# According to US20240150375A1, “MACROCYCLIC COMPOUNDS AND USES THEREOF” (Theseus Pharmaceuticals, Inc., priority 2021, published 2024):
# Columns and labels:
# Ba/F3 EGFR-Del19/C797S = Ba/F3 EGFR-Del19/C797S (Homo sapiens, UniProt P00533, C797S, cells depend on it, form not given); test: Ba/F3 viability assay (CellTiter-Glo), EGFR-Del19/C797S (DC); format: cell-based; conditions: Ba/F3 EGFR-Del19/C797S anti-proliferation; read-out: BAF3 DC IC50
# Excerpt: (§1) Inhibition of cell proliferation can be studied using Ba/F3 viability assays, including the Promega CellTiter-Glo cell viability assay. This assay can be used to study the effect of compounds described herein in the following assays: (1) Ba/F3 Parental; (2) Ba/F3 EGFR-Del19/T790M; (3); Ba/F3 EGFR-Del19/C797S; and (4) Ba/F3 EGFR-Del119/T790M/C797S.
# (§2) One hundred thirty six compounds were studied using the kinase (EGFR) and BA/F3 assays described herein, with more than 60% of the tested compounds providing IC50<50 nM values in all six assays. Accordingly, compounds of the invention are a new general class of kinase inhibitors, including potent inhibitors of EGFR mutants.
# (§3) Exemplary kinase inhibition (Kinase) and anti-proliferation activity (Ba/F3) data are shown in Table 1 for certain compounds of the invention and are categorized according to the below legend.
# EGFR^L858R/T790M/C797S = EGFR^L858R/T790M/C797S (Homo sapiens, UniProt P00533, C797S/L858R/T790M); test: HTRF KinEASE-TK in vitro kinase assay, EGFR L858R/T790M/C797S (LTC); format: biochemical; conditions: EGFR L858R/T790M/C797S kinase inhibition
# Excerpt: (§4) The biological activity of compounds described herein can be studied according to standard methods known in the art. Methods can be used to study inhibition of EGFR, including mutant forms of EGFR comprising L858R, T790M, C797S, and/or Del19 mutations, or any combination thereof (e.g., L858R single, double, or triple mutants). Exemplary, non-limiting methods are described herein.
# (§5) Assays using an in vitro kinase assay kit (HTRF KinEASE-TK kit) can be used to study the inhibitory activity of compounds described herein with respect to EGFR mutants such as ECFR^L858R, EGFR^L858R/T790M, and EGFR^L858R/T790M/C797S.
# as §2, §3
# EGFR^L858R/T790M = EGFR^L858R/T790M (Homo sapiens, UniProt P00533, L858R/T790M); test: HTRF KinEASE-TK in vitro kinase assay, EGFR L858R/T790M (LT); format: biochemical; conditions: EGFR L858R/T790M kinase inhibition
# Excerpt: as §4, §5, §2, §3
# Ba/F3 EGFR-Del19/T790M = Ba/F3 EGFR-Del19/T790M (Homo sapiens, UniProt P00533, T790M, cells depend on it, form not given); test: Ba/F3 viability assay (CellTiter-Glo), EGFR-Del19/T790M (DT); format: cell-based; conditions: Ba/F3 EGFR-Del19/T790M anti-proliferation; read-out: BAF3 DT IC50
# Excerpt: as §1, §2, §3
# EGFR^L858R = EGFR^L858R (Homo sapiens, UniProt P00533, L858R); test: HTRF KinEASE-TK in vitro kinase assay, EGFR L858R (L); format: biochemical; conditions: EGFR L858R kinase inhibition
# Excerpt: as §4, §5, §2, §3
# [1] = molecular target: Ba/F3 EGFR-Del19/T790M/C797S (Homo sapiens, UniProt P00533, T790M/C797S, cells depend on it, form not given); test: Ba/F3 viability assay (CellTiter-Glo), EGFR-Del19/T790M/C797S (DTC); format: cell-based; conditions: Ba/F3 EGFR-Del19/T790M/C797S anti-proliferation; read-out: BAF3 DTC IC50
# Excerpt: as §1, §2, §3
# EGFR^L858R/T790M/C797S, sequence (P00533 25-1210 T790M/C797S/L858R): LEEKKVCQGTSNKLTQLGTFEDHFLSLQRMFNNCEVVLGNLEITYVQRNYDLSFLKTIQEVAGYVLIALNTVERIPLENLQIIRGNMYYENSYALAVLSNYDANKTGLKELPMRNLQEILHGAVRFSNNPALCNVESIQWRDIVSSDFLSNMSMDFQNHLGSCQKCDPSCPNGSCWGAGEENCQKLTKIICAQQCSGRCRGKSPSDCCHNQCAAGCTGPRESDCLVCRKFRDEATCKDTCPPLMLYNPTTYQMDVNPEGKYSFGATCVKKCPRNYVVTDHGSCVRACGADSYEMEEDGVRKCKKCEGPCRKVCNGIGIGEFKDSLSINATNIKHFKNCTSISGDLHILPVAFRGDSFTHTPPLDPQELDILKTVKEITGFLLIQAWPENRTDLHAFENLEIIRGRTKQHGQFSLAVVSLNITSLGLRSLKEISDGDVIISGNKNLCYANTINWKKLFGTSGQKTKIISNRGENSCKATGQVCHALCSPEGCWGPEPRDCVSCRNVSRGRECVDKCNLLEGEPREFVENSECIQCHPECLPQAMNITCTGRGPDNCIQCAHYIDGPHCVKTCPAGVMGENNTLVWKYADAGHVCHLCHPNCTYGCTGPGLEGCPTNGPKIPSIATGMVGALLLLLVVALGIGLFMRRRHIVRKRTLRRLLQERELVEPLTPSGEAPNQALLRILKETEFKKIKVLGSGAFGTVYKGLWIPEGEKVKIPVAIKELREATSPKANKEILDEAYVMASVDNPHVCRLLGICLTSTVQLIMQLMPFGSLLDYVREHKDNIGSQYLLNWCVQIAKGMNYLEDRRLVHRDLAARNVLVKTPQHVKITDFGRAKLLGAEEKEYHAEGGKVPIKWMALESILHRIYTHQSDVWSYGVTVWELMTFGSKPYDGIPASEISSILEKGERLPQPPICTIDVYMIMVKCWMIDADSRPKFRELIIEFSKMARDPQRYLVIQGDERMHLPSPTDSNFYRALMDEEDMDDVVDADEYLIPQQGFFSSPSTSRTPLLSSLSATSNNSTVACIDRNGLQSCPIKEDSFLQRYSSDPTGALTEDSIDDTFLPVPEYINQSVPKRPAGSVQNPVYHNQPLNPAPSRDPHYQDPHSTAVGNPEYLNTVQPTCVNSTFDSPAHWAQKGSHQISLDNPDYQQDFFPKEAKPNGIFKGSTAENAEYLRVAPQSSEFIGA
# Ba/F3 EGFR-Del19/T790M, sequence (P00533 with tags, fused parts or gaps DEL746-750/T790M, form open): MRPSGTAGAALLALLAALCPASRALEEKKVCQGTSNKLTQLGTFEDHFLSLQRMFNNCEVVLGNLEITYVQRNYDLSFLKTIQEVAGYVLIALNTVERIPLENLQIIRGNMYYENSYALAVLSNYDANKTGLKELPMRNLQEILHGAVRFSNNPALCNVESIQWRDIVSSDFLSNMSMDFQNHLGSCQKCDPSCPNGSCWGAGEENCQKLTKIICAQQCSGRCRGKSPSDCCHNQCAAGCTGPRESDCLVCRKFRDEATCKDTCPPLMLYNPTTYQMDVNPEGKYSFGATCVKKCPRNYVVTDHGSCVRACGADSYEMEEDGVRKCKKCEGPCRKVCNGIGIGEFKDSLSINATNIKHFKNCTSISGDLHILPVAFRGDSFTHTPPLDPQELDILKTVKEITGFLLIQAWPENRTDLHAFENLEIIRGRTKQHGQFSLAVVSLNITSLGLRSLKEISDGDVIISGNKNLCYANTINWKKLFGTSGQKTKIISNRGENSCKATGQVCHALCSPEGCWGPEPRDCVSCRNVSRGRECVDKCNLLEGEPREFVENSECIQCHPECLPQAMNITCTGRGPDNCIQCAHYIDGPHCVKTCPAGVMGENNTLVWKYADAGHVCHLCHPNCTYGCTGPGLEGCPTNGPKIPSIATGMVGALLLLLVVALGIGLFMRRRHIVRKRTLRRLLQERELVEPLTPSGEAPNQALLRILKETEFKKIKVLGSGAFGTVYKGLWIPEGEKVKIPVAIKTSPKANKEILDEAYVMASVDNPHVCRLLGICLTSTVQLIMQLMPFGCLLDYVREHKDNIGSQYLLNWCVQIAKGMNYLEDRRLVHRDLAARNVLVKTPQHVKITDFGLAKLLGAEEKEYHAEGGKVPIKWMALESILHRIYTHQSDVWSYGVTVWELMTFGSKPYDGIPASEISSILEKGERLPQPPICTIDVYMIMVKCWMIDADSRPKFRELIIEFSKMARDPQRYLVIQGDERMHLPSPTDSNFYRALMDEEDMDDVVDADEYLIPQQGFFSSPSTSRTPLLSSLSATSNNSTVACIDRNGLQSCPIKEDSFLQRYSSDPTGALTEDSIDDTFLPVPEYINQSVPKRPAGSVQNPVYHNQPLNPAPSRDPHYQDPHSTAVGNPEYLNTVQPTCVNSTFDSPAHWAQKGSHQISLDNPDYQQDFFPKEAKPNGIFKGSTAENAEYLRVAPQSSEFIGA
# Ba/F3 EGFR-Del19/C797S, sequence (P00533 with tags, fused parts or gaps DEL746-750/C797S, form open): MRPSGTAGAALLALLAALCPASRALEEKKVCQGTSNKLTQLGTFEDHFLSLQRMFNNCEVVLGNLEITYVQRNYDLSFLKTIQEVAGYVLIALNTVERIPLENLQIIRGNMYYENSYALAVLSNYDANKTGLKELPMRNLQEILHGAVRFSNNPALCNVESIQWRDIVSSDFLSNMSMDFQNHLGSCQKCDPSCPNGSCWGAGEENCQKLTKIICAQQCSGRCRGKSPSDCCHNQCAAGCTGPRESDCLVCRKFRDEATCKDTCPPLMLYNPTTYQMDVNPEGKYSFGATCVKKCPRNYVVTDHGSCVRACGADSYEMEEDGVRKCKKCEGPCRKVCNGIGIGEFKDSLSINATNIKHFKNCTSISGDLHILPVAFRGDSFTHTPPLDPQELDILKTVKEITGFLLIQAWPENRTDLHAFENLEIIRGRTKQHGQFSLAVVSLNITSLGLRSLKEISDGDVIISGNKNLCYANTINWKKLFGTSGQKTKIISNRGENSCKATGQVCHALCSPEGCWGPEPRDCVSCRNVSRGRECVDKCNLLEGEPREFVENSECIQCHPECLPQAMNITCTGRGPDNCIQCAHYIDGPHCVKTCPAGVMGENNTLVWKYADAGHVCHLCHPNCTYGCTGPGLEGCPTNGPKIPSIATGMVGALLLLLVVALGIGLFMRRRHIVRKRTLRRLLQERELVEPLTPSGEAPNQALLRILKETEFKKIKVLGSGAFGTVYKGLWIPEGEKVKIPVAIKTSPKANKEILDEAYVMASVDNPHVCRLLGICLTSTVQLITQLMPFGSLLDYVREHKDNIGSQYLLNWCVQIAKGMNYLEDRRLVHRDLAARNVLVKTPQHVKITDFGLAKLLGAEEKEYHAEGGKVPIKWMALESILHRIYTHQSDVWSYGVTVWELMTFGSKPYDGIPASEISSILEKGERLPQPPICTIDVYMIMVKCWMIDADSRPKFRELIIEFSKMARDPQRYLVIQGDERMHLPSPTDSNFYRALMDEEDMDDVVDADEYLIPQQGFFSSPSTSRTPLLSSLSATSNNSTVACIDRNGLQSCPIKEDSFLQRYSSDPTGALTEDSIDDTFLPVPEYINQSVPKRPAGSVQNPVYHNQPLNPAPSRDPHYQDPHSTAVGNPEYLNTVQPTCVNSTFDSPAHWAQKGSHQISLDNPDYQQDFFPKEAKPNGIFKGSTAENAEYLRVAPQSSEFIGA
# EGFR^L858R, sequence (P00533 25-1210 L858R): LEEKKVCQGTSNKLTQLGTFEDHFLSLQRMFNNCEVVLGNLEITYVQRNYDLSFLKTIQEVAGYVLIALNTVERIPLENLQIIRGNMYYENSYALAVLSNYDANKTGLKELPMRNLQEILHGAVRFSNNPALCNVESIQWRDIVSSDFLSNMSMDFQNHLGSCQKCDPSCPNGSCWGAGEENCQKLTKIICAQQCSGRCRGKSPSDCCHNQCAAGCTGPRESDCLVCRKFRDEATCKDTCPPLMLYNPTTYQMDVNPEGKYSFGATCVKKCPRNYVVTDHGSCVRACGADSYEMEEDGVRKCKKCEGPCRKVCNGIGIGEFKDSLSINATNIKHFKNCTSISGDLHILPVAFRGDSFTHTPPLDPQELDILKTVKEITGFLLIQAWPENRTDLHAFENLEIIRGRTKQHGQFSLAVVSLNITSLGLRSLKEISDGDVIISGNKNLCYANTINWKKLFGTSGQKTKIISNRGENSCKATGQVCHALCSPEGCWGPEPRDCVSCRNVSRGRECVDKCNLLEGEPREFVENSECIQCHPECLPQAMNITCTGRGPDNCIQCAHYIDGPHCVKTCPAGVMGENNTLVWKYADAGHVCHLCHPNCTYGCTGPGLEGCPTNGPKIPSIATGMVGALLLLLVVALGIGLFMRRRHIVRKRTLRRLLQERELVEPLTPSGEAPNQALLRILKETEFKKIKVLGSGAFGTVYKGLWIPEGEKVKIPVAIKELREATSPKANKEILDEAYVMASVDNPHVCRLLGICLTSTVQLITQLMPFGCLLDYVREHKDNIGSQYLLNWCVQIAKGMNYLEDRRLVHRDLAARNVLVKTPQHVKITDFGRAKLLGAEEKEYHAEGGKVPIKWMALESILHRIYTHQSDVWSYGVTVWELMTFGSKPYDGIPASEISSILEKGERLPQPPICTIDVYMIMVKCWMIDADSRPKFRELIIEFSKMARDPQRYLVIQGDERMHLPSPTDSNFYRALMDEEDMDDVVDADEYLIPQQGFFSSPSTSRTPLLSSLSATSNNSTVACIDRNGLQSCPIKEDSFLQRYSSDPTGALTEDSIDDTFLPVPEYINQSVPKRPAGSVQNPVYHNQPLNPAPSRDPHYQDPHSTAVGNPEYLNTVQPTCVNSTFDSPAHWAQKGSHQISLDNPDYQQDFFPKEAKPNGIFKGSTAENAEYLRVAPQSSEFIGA
IC50 (EGFR^L858R/T790M/C797S),IC50 (EGFR^L858R/T790M),IC50 (EGFR^L858R),Structure (SMILES),GI50 (Ba/F3 EGFR-Del19/C797S),GI50 (Ba/F3 EGFR-Del19/T790M),GI50 [1]
< 50 nM,< 50 nM,< 50 nM,"C[C@H]1CCOc2c(cnn2C)-c2nccc(n2)Nc2cc(c(-c3cc(CN4CCN(C)CC4)n(C)c3)cn2)O1 [(127), (10S)-5,10-dimethyl-13-[1-methyl-5-[(4-methylpiperazin-1-yl)methyl]pyrrol-3-yl]-7,11-dioxa-4,5,15,17,21,22-hexazatetracyclo[16.3.1.1^12,16.0^2,6]tricosa-1(22),2(6),3,12(23),13,15,18,20-octaene]",< 50 nM,< 50 nM,< 50 nM
< 50 nM,< 50 nM,< 50 nM,C[C@H]1CCOc2c(cnn2C)-c2nccc(n2)Nc2cc(c(-c3cnc(N4CCN(C)CC4)c(OCC(F)(F)F)c3)cn2)O1 [(128)],50 to 100 nM,50 to 100 nM,< 50 nM
< 50 nM,< 50 nM,< 50 nM,C[C@H]1CCOc2c(cnn2C)-c2nccc(n2)Nc2cc(c(-c3ccc(N(C)CCN(C)C)cc3)cn2)O1 [(133)],< 50 nM,< 50 nM,< 50 nM
< 50 nM,< 50 nM,< 50 nM,COc1cc(-c2cnc3cc2O[C@@H](C)CCOc2c(cnn2C)-c2nccc(n2)N3)cnc1N1CCN(C)CC1 [(137)],< 50 nM,< 50 nM,< 50 nM
< 50 nM,< 50 nM,< 50 nM,C[C@H]1CCOc2c(cnn2C)-c2nccc(n2)Nc2cc(c(-c3ccc(N(C)CCN(C)C)nc3)cn2)O1 [(138)],50 to 100 nM,50 to 100 nM,< 50 nM
< 50 nM,< 50 nM,< 50 nM,C[C@H]1CCOc2c(cnn2C)-c2nccc(n2)Nc2cc(c(-c3cnn(C4CCNCC4)c3)cn2)O1 [(141)],< 50 nM,< 50 nM,< 50 nM
< 50 nM,< 50 nM,< 50 nM,C[C@H]1CCOc2c(cnn2C)-c2nccc(n2)Nc2cc(c(-c3cc(CN4CCOCC4)n(C)n3)cn2)O1 [(144)],< 50 nM,< 50 nM,< 50 nM
< 50 nM,< 50 nM,100 to 1000 nM,COC(=O)c1cc(-c2cnc3cc2O[C@@H](C)CCOc2c(cnn2C)-c2nccc(n2)N3)n(C)c1 [(145)],100 to 1000 nM,100 to 1000 nM,100 to 1000 nM
< 50 nM,< 50 nM,< 50 nM,C[C@H]1CCOc2c(cnn2C)-c2nccc(n2)Nc2cc(c(-c3ccc(CN4CCN(C)CC4)c(OCC(F)(F)F)c3)cn2)O1 [(146)],< 50 nM,< 50 nM,< 50 nM
< 50 nM,< 50 nM,< 50 nM,COc1cc(-c2cnc3cc2O[C@@H](C)CCOc2c(cnn2C)-c2nccc(n2)N3)ccc1CN1CCN(C)CC1 [(147)],< 50 nM,< 50 nM,< 50 nM
< 50 nM,< 50 nM,< 50 nM,C[C@H]1CCOc2c(cnn2C)-c2nccc(n2)Nc2cc(c(-c3cccc(NCCN(C)C)c3)cn2)O1 [(148)],< 50 nM,< 50 nM,< 50 nM
< 50 nM,< 50 nM,< 50 nM,COc1cc(CN2CCN(C)CC2)ccc1-c1cnc2cc1O[C@@H](C)CCOc1c(cnn1C)-c1nccc(n1)N2 [(149)],< 50 nM,50 to 100 nM,< 50 nM
< 50 nM,< 50 nM,< 50 nM,CCOc1cc(-c2cnc3cc2O[C@@H](C)CCOc2c(cnn2C)-c2nccc(n2)N3)ccc1CN1CCN(C)CC1 [(150)],< 50 nM,< 50 nM,< 50 nM
< 50 nM,< 50 nM,50 to 100 nM,"C[C@H]1CCOc2c(cnn2C)-c2nccc(n2)Nc2cc(c(Cl)cn2)O1 [(151), (10S)-13-chloro-5,10-dimethyl-7,11-dioxa-4,5,15,17,21,22-hexazatetracyclo[16.3.1.112,16.02,6]tricosa-1(22),2(6),3,12(23),13,15,18,20-octaene]",100 to 1000 nM,100 to 1000 nM,100 to 1000 nM
< 50 nM,< 50 nM,< 50 nM,C[C@H]1CCOc2c(cnn2C)-c2nccc(n2)Nc2cc(c(-c3ccc(N4CCN(C)CC4)nc3)cn2)O1 [(152)],< 50 nM,< 50 nM,< 50 nM
< 50 nM,< 50 nM,100 to 1000 nM,C[C@H]1CCOc2c(cnn2C)-c2nccc(n2)Nc2cc(ccn2)O1 [(153)],100 to 1000 nM,100 to 1000 nM,100 to 1000 nM
< 50 nM,< 50 nM,< 50 nM,C[C@H]1CCOc2c(cnn2C)-c2nccc(n2)Nc2cc(c(-c3cccc(CN4CCN(C)CC4)c3)cn2)O1 [(159)],< 50 nM,< 50 nM,< 50 nM
< 50 nM,< 50 nM,< 50 nM,C[C@H]1CCOc2c(cnn2C)-c2nccc(n2)Nc2cc(c(-c3ccc(CN4CCN(C)CC4)cc3)cn2)O1 [(160)],< 50 nM,< 50 nM,< 50 nM
< 50 nM,< 50 nM,< 50 nM,"CC1CCOc2c(cnn2C)-c2nccc(n2)Nc2cc(c(-c3ccc(CN4CCN(C)CC4)cc3)cn2)O1 (stereo not drawn) [(169), 5,10-dimethyl-13-[4-[(4-methylpiperazin-1-yl)methyl]phenyl]-7,11-dioxa-4,5,15,17,21,22-hexazatetracyclo[16.3.1.112,16.02,6]tricosa-1(22),2(6),3,12(23),13,15,18,20-octaene]",< 50 nM,< 50 nM,< 50 nM
